Data from publication PMC5889666 (Proceedings of the National Academy of Sciences of the …, 2018).

Legend:
FadD = target: T1, FadD (Escherichia coli, UniProt P69451); test: in vitro acyl-CoA synthesis, product by LC-MS; type: biochemical
T1 sequence (P69451 1-561): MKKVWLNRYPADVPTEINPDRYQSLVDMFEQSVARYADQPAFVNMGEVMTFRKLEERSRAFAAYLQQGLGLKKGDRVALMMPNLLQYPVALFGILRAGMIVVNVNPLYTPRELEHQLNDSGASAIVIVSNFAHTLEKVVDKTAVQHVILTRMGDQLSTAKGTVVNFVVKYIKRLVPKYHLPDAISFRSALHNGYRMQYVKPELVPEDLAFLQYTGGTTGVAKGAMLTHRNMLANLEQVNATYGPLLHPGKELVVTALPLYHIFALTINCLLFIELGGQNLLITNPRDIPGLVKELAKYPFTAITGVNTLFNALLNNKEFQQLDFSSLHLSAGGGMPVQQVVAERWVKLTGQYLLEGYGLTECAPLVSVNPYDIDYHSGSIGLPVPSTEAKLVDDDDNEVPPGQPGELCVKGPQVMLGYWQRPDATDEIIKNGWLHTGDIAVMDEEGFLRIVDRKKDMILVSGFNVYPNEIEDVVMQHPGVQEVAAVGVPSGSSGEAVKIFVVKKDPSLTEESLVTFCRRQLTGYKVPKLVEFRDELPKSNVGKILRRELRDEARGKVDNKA

PlsB = target: T2, PlsB (Escherichia coli, UniProt P0A7A7); test: in vitro lyso-phosphatidic acid synthesis, product by LC-MS; type: biochemical; settings: co-substrate acyl-CoA made from oleic acid and CoA by FadD
T2 sequence (P0A7A7 2-807): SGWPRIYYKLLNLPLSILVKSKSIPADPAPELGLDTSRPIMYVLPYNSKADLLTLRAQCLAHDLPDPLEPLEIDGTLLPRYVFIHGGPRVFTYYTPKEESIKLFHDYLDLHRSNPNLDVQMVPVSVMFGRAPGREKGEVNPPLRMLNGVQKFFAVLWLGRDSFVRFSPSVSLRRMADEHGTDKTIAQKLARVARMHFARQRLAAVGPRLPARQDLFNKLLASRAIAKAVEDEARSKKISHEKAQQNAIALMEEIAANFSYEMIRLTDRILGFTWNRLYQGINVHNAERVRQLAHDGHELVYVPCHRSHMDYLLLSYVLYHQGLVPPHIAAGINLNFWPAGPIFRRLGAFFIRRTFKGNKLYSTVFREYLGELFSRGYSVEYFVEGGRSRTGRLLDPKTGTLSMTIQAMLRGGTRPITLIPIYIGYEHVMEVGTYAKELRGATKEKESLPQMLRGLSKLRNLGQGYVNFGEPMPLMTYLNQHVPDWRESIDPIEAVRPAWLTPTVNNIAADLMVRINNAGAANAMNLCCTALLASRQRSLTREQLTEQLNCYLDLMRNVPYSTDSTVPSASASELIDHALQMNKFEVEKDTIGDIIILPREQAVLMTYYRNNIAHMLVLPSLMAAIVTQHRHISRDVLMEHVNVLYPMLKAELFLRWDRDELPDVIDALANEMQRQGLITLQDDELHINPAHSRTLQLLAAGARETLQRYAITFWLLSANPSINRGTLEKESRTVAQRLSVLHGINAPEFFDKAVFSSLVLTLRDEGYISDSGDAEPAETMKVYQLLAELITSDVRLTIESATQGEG

purified protein [1] = substrate: O=P(O)(O)OC[C@H](O)CO; test: purified protein; settings: co-substrate GGPP
purified protein [2] = substrate: O=P(O)(O)OC[C@@H](O)CO; test: purified protein; settings: co-substrate GGPP

Molecule: CC(C)(COP(=O)(O)OP(=O)(O)OC[C@H]1O[C@@H](n2cnc3c(N)ncnc32)[C@H](O)[C@@H]1OP(=O)(O)O)[C@@H](O)C(=O)NCCC(=O)NCCS [CoA]
- in vitro acyl-CoA synthesis, product by LC-MS (FadD; co-substrate oleic acid): in vitro condensation of oleic acid and CoA to yield acyl-CoA

Molecule: CCCCCCCC/C=C\CCCCCCCC(=O)O [oleic acid]
- in vitro acyl-CoA synthesis, product by LC-MS (FadD; co-substrate CoA): in vitro condensation of oleic acid and CoA to yield acyl-CoA

Molecule: O=P(O)(O)OC[C@H](O)CO [G3P]
- in vitro lyso-phosphatidic acid synthesis, product by LC-MS (PlsB): LPA synthesis was observed only in the presence of G3P

B1: GGGPS (Methanococcus maripaludis S2) (protein)
chain: MQIKIGEIESKLNKIIEEEGAAYFVLIDPDEKNYREIANHVKDYADAIIIGGSIGIINLDEVTKDIKEITGLPIILFPGNVDGVTKEADAVFFMSLMNSKNTYWNMTAPTLGALTIKKYGLETLPMAYLGIEPISKTAVGFVGEVNEIPQKKPEIAGLYSLSASYFGMRWAYLEAGSGAEYPVSNEMVGISKKLSGINIIVGGGIRTPEVAYEKVMSGADVIVTGTLTEKDPQAVVEMKKAIKKAGLDKLKMLSKK
- Km (purified protein [1]): 46.7 ± 6 µM
- Km (purified protein [2]): 5.8 ± 1.6 µM
